Measurements reported in article PMC7316778 (Nature Communications, 2020).
Where “and” joins values, the source holds several entries; their conditions need not be identical. Identical values can stand only once.

Columns and labels:
[1] = test system: FES^S700C HL-60 neutrophils; test: Phagocytosis assay with GFP-expressing E. coli; type: cell-based, human; details: for GFP-positive cells (%): Sup. Fig. 15a; for Mean GFP intensity (RFU): Sup. Fig. 15b
Experimental: HL-60 cells were differentiated to neutrophils as described above. Cells were counted and centrifuged (200g, 5 min), followed by resuspension in growth medium without antibiotics. Cells were incubated with vehicle or inhibitor (from 1000x concentrated stocks in DMSO) for 1 h at 37 °C prior to infection (1×10^6 cells in 900 µL in 12-well plate). Meanwhile, E. coli B834(DE3) constitutively expressing GFP^A206K were grown in LB medium to an OD600 of 0.4–1.0, after which bacteria were centrifuged (2000g, 5 min), washed and resuspended in PBS to appropriate density. Neutrophils were infected by addition of bacteria at multiplicity of infection (MOI) of 30 unless stated otherwise. Cells were then incubated for 1 h at 37 °C unless stated otherwise, after which cells were resuspended and transferred to Eppendorf tubes, washed in FACS buffer (1 mL, 500g, 3 min) and fixed in 1% PFA in PBS (15 min, 4 °C, in the dark). Samples were further processed as described above.
Events (generally 20,000 per condition) were gated by forward and side scatter (cells), side scatter area (singlets) and the percentage of GFP-positive cells and GFP mean fluorescence intensity (MFI) were determined based on background fluorescence for non-infected cells. The GREEN-B channel (525/30 filter) was used to detect GFP.

FES^WT = biological target: T1, FES^WT (Homo sapiens, UniProt P07332); test: In vitro TR-FRET kinase assay; type: biochemical; details: for Residual activity (%): FES WT, mean, n=3; for IC50: TR-FRET assay, 5 µM ATP, n = 3, read-out: pIC50 FES^WT (converted)
T1 construct: human FES cDNA encoding residues 448–822 or human FER cDNA encoding residues 448–820 was amplified by PCR; made in house; host or cells: E. coli BL21(DE3), co-expressing YopH phosphatase
T1 sequence (P07332 448-822): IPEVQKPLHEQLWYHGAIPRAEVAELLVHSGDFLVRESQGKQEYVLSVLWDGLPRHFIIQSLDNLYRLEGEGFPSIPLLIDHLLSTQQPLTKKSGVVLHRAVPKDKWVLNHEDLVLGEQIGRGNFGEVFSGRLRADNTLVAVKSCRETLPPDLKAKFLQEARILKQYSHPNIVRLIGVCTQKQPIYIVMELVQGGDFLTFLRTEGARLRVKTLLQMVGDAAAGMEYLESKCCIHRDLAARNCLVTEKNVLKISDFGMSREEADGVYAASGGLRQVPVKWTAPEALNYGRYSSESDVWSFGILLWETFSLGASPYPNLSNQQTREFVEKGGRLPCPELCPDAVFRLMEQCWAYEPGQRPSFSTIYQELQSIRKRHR
Experimental: All measurements were performed in triplicate.

FER^WT = FER^WT (Homo sapiens, UniProt P16591); test: In vitro TR-FRET kinase assay
FER^WT, sequence (P16591 448-820): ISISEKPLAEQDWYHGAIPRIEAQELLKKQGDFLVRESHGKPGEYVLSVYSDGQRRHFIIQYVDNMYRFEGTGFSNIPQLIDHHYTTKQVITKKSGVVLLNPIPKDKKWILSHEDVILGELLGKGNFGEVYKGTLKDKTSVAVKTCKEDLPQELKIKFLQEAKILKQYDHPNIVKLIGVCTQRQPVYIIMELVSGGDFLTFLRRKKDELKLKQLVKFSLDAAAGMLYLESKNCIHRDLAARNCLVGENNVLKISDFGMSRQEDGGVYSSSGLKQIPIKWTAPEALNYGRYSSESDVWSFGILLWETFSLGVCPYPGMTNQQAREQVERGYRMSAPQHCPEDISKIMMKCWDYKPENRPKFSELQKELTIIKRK

Structure (SMILES): COc1cc(Nc2ncc(F)c(Nc3ccc4c(n3)NC(=O)C(C)(C)O4)n2)cc(OC)c1OC [Compound R406, R406]
- Phagocytic index ([1]; Figure 7i, replicates): 212.415 and 224.559 and 218.427 and 271.225 and 264.489
- Phagocytosis ([1]; R406 1 µM): reduced phagocytosis to similar levels as observed for WEL028

Structure (SMILES): C=CC(=O)Nc1ccccc1Nc1nc(Nc2ccccc2OC)ncc1Cl [Supplementary Figure 1e]
- Residual activity (%) (FES^WT; log[inhibitor] (M) = -5): 4.602%
- Residual activity (%) (FES^WT; log[inhibitor] (M) = -5.52288): 7.942%
- Residual activity (%) (FES^WT; log[inhibitor] (M) = -6): 20.2502%
- Residual activity (%) (FES^WT; log[inhibitor] (M) = -6.52288): 52.3925%
- Residual activity (%) (FES^WT; log[inhibitor] (M) = -7): 77.2757%
- Residual activity (%) (FES^WT; log[inhibitor] (M) = -7.52288): 90.9565%
- Residual activity (%) (FES^WT; log[inhibitor] (M) = -8): 93.9799%
- Residual activity (%) (FES^WT; log[inhibitor] (M) = -8.52288): 103.383%
- Residual activity (%) (FES^WT; log[inhibitor] (M) = -9): 97.8768%
- Residual activity (%) (FES^WT; log[inhibitor] (M) = -9.52288): 97.6076%
- Residual activity (%) (FES^WT; log[inhibitor] (M) = -10): 100%
- Residual activity (%) (FES^WT; log[inhibitor] (M) = -10.5229): 116.125%

Structure (SMILES): C=CC(=O)Nc1ccccc1Nc1nc(Nc2ccccc2OC)ncc1Cl [Compound 4]
- IC50 (FES^WT): 2000 nM
- IC50 (FER^WT): 200 nM

Structure (SMILES): COc1ccccc1Nc1ncc(Cl)c(Nc2ccccc2S(=O)(=O)C(C)C)n1 [Compound 2]
- IC50 (FES^WT): 50.1 nM
- IC50 (FER^WT): 5.01 nM

Structure (SMILES): C=C1[C@@H](C)[C@H]2[C@H](Cc3ccccc3)NC(=O)[C@]23[C@H](OC(C)=O)/C=C/[C@@](C)(O)C(=O)[C@@H](C)C/C=C/[C@H]3[C@@H]1O [Cytochalasin D]
- Phagocytic index ([1]; Figure 7i, replicates): 55.7493 and 57.2763 and 70.3881 and 51.4867 and 48.2922
- Phagocytic index ([1]; MOI 0, Sup. Fig. 15d): 8.168 and 11.9502 and 9.328
- Phagocytic index ([1]; MOI 5, Sup. Fig. 15d): 77.8958 and 83.9457 and 75.261
- Phagocytic index ([1]; MOI 10, Sup. Fig. 15d): 109.345 and 104.624 and 85.7245
- Phagocytic index ([1]; MOI 30, Sup. Fig. 15d): 212.699 and 198.296 and 185.432
- Phagocytic index ([1]; MOI 50, Sup. Fig. 15d): 255.429 and 327.443 and 225.712
- GFP-positive cells (%) ([1]; infection time 0 min): 14.1178% and 22.6106% and 27.9257%
- Mean GFP intensity (RFU) ([1]; infection time 0 min): 245.785 RFU and 271.934 RFU and 267.216 RFU
- GFP-positive cells (%) ([1]; infection time 15 min): 27.3639% and 36.225% and 38.7869%
- Mean GFP intensity (RFU) ([1]; infection time 15 min): 283.565 RFU and 293.305 RFU and 282.675 RFU
- Phagocytic index ([1]; infection time 15 min, Sup. Fig. 15c): 77.5947 and 106.25 and 109.641
- GFP-positive cells (%) ([1]; infection time 30 min): 33.857% and 41.6734% and 39.0238%
- Mean GFP intensity (RFU) ([1]; infection time 30 min): 270.952 RFU and 276.074 RFU and 268.61 RFU
- Phagocytic index ([1]; infection time 30 min, Sup. Fig. 15c): 91.7362 and 115.049 and 104.822
- GFP-positive cells (%) ([1]; infection time 60 min): 50.1058% and 58.9504% and 42.1365%
- Mean GFP intensity (RFU) ([1]; infection time 60 min): 234.066 RFU and 238.429 RFU and 237.207 RFU
- Phagocytic index ([1]; infection time 60 min, Sup. Fig. 15c): 117.281 and 140.555 and 99.951

Structure (SMILES): Nc1ncnc2c1ncn2[C@@H]1O[C@H](COP(=O)(O)OP(=O)(O)OP(=O)(O)O)[C@@H](O)[C@H]1O [ATP]
- Km (FES^WT; FES^WT, TR-FRET, 60 min, read-out: ATP KM): 1.9 µM
- Km (FER^WT; read-out: ATP KM, FER^WT): 11 µM

Structure (SMILES): C=CC(=O)Nc1ccccc1Nc1nc(Nc2ccccc2OC)ncc1Cl [Supplementary Figure 8d]
- Residual activity (%) WT Mean (FER^WT; log[inhibitor] (M) -5): 4.829%
- Residual activity (%) WT Mean (FER^WT; log[inhibitor] (M) -5.52288): 6.417%
- Residual activity (%) WT Mean (FER^WT; log[inhibitor] (M) -6): 19.305%
- Residual activity (%) WT Mean (FER^WT; log[inhibitor] (M) -6.52288): 38.3519%
- Residual activity (%) WT Mean (FER^WT; log[inhibitor] (M) -7): 71.19%
- Residual activity (%) WT Mean (FER^WT; log[inhibitor] (M) -7.52288): 87.6084%
- Residual activity (%) WT Mean (FER^WT; log[inhibitor] (M) -8): 99.295%
- Residual activity (%) WT Mean (FER^WT; log[inhibitor] (M) -8.52288): 98.6881%
- Residual activity (%) WT Mean (FER^WT; log[inhibitor] (M) -9): 106.616%
- Residual activity (%) WT Mean (FER^WT; log[inhibitor] (M) -9.52288): 102.334%
- Residual activity (%) WT Mean (FER^WT; log[inhibitor] (M) -10): 107.184%
- Residual activity (%) WT Mean (FER^WT; log[inhibitor] (M) -10.5229): 102.376%
- Residual activity (%) WT Mean (FER^WT; log[inhibitor] (M) -11): 116.944%
